Results from the supplement of paper PMC11061612.

What was measured:
Assay in all cases: combination Emax (second highest fraction inhibited in the dose matrix, 72 h); higher = more inhibition; extreme values may be limits of the assay
[1] = system: NCI-H1299 (Non-Small Cell Lung Carcinoma)
How it was run: (§1)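 Cell lines grown in DMEM/F12 or RPMI with 10% FBS were plated in 1536-well plates and held 24 hours at 37°C, 5% CO2 before 72 hours of exposure to two-drug dose matrices, with DMSO typically at 0.2%. CellTiter-Glo 2.0 luminescence gave viability, which was converted to inhibition. Vehicle wells were set to 0 and blank wells to 1. Combination Emax is the second-highest inhibition in the matrix, and Bliss excess is the observed combination effect minus the expected EA + EB − EA·EB, where EA and EB are the single-agent effects.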

[2] = system: NCI-H1781 (Lung Adenocarcinoma)
How it was run: as §1

[3] = system: IGR-1 (Melanoma)
How it was run: as §1

[4] = system: U-266 (Plasma Cell Myeloma)
How it was run: as §1

[5] = system: MFH-ino (Other Solid Carcinomas)
How it was run: as §1

[6] = system: NCI-H1694 (Small Cell Lung Carcinoma)
How it was run: as §1

[7] = system: DSH1 (Bladder Carcinoma)
How it was run: as §1

[8] = system: DMS-273 (Small Cell Lung Carcinoma)
How it was run: as §1

[9] = system: SK-N-FI (Neuroblastoma)
How it was run: as §1

[10] = system: SW780 (Bladder Carcinoma)
How it was run: as §1

[11] = system: KARPAS-1106P (B-Cell Non-Hodgkin's Lymphoma)
How it was run: as §1

[12] = system: NCI-H2595 (Mesothelioma)
How it was run: as §1

[13] = system: RH-1 (Ewing's Sarcoma)
How it was run: as §1

[14] = system: 697 (B-Lymphoblastic Leukemia)
How it was run: as §1

[15] = system: OCI-AML2 (Acute Myeloid Leukemia)
How it was run: as §1

[16] = system: SW756 (Cervical Carcinoma)
How it was run: as §1

[17] = system: KATOIII (Gastric Carcinoma)
How it was run: as §1

[18] = system: CTV-1 (T-Lymphoblastic Leukemia)
How it was run: as §1

[19] = system: DB (B-Cell Non-Hodgkin's Lymphoma)
How it was run: as §1

[20] = system: SW1990 (Pancreatic Carcinoma)
How it was run: as §1

SMILES	combination Emax [1]	combination Emax [2]	combination Emax [3]	combination Emax [4]	combination Emax [5]	combination Emax [6]	combination Emax [7]	combination Emax [8]	combination Emax [9]	combination Emax [10]	combination Emax [11]	combination Emax [12]	combination Emax [13]	combination Emax [14]	combination Emax [15]	combination Emax [16]	combination Emax [17]	combination Emax [18]	combination Emax [19]	combination Emax [20]
C=CCn1c(=O)c2cnc(Nc3ccc(N4CCN(C)CC4)cc3)nc2n1-c1cccc(C(C)(C)O)n1 [AZD1775] + C[C@@H]1COCCN1C2=NC(=NC(=C2)C3(CC3)[S@](=N)(=O)C)C4=C5C=CNC5=NC=C4 [AZD6738] (first compound max 1 µM, partner max 10 µM)	0.889	0.65	0.538	0.707	0.536	0.883	0.862	0.923	0.857	0.246	0.886	0.266	1	1	1	0.425	0.507	0.993	0.934	0.623
Cc1c2c(nn1C)CSCc1cc(n(C)n1)CSc1cc(c3ccccc3c1)OCCCc1c(C(=O)O)n(C)c3c-2c(Cl)ccc13 [AZD5991] + CC1(C)CCC(CN2CCN(c3ccc(C(=O)NS(=O)(=O)c4ccc(NCC5CCOCC5)c([N+](=O)[O-])c4)c(Oc4cnc5[nH]ccc5c4)c3)CC2)=C(c2ccc(Cl)cc2)C1 [Venetoclax] (first compound max 1 µM, 7x7, partner max 1 µM)	0.258	0.432	0.969	0.97	0.182	0.988	0.964	0.964	0.65	0.386	0.935	0.267	0.766	1	1	0.185	0.101	0.13	1	0.164
CC1(C)CCC(CN2CCN(c3ccc(C(=O)NS(=O)(=O)c4ccc(NCC5CCOCC5)c([N+](=O)[O-])c4)c(Oc4cnc5[nH]ccc5c4)c3)CC2)=C(c2ccc(Cl)cc2)C1 [Venetoclax] + C[C@@H]1COCCN1C2=NC(=NC(=C2)C3(CC3)[S@](=N)(=O)C)C4=C5C=CNC5=NC=C4 [AZD6738] (first compound max 1 µM, 7x7, partner max 10 µM)	0.534	0.451	0.675	0.614	0.5	0.822	0.659	0.809	0.766	0.22	0.688	0.249	0.959	1	1	0.325	0.462	0.924	0.983	0.666
NC1(C(=O)N[C@@H](CCO)c2ccc(Cl)cc2)CCN(c2ncnc3[nH]ccc23)CC1 [Capivasertib] + C[C@@H]1COCCN1C2=NC(=NC(=C2)C3(CC3)[S@](=N)(=O)C)C4=C5C=CNC5=NC=C4 [AZD6738] (first compound max 10 µM, 7x7, partner max 10 µM)	0.602	0.685	0.713	0.365	0.602	0.682	0.848	0.856	0.705	0.284	0.694	0.29	0.97	1	0.983	0.428	0.438	0.902	0.424	0.498
Cn1cnc2c(F)c(Nc3ccc(Br)cc3Cl)c(C(=O)NOCCO)cc21 [Selumetinib] + CC(C)n1c(=O)n(C)c2cnc3cc(F)c(-c4ccc(OCCCN5CCCCC5)nc4)cc3c21 [AZD1390] (first compound max 10 µM, 7x7, partner max 0.3 µM)	0.23	0.218	0.296	0.532	0.281	0.206	0.323	0.232	0.435	0.381	0.0708	0.191	0.048	0.373	0.993	0.229	0.475	0.331	0.304	0.202
COc1nnc2ccc(N3CCC(c4ccc(OCCN5CCN(C)C(=O)[C@H]5C)cc4)CC3)nn12 [AZD5153] + C[C@@H]1COCCN1C2=NC(=NC(=C2)C3(CC3)[S@](=N)(=O)C)C4=C5C=CNC5=NC=C4 [AZD6738] (first compound max 1 µM, 7x7, partner max 10 µM)	0.794	0.491	0.728	0.412	0.547	0.921	0.808	0.883	0.783	0.465	0.944	0.461	0.957	1	1	0.447	0.553	0.987	0.811	0.497
Cc1cc2ncnn2cc1Nc1ncc2c(n1)n(C1CCOCC1)c(=O)n2C [AZD7648] + O=C(c1cc(Cc2n[nH]c(=O)c3ccccc23)ccc1F)N1CCN(C(=O)C2CC2)CC1 [Olaparib] (first compound max 10 µM, 7x7, partner max 10 µM)	0.249	0.413	0.164	0.335	0.262	0.152	0.272	0.553	0.213	0.165	0.41	0.116	0.23	0.988	0.723	0.157	0.145	0.279	0.451	0.11
COc1cccc(OCCCN)c1-c1cc(Nc2cnc(C#N)cn2)n[nH]1 [Prexasertib] + CN(C)CCCOc1ccc(-c2ccc3ncc4c(c3c2)n(C2CCOCC2)c(=O)n4C)cn1 [AZD0156] (first compound max 1 µM, 7x7, partner max 1 µM)	0.747	0.45	0.466	0.728	0.394	0.794	0.82	0.923	0.908	0.136	0.919	0.1	1	1	1	0.379	0.522	0.988	0.771	0.705
CC1(C)CCC(CN2CCN(c3ccc(C(=O)NS(=O)(=O)c4ccc(NCC5CCOCC5)c([N+](=O)[O-])c4)c(Oc4cnc5[nH]ccc5c4)c3)CC2)=C(c2ccc(Cl)cc2)C1 [Venetoclax] + Cc1cc2ncnn2cc1Nc1ncc2c(n1)n(C1CCOCC1)c(=O)n2C [AZD7648] (first compound max 1 µM, 7x7, partner max 10 µM)	0.224	0.329	0.174	0.511	0.318	0.223	0.187	0.482	0.262	0.163	0.458	0.228	0.242	0.983	1	0.195	0.214	0.362	0.957	0.572
CN(C)CCCOc1ccc(-c2ccc3ncc4c(c3c2)n(C2CCOCC2)c(=O)n4C)cn1 [AZD0156] + C[C@@H]1COCCN1C2=NC(=NC(=C2)C3(CC3)[S@](=N)(=O)C)C4=C5C=CNC5=NC=C4 [AZD6738] (first compound max 1 µM, 7x7, partner max 10 µM)	0.746	0.346	0.523	0.523	0.403	0.711	0.823	0.834	0.793	0.138	0.752	0.12	0.938	1	0.975	0.322	0.519	0.829	0.628	0.552
COc1nnc2ccc(N3CCC(c4ccc(OCCN5CCN(C)C(=O)[C@H]5C)cc4)CC3)nn12 [AZD5153] + CCN(CCO)CCCOc1ccc2c(Nc3cc(CC(=O)Nc4cccc(F)c4)[nH]n3)ncnc2c1 [AZD2811] (first compound max 1 µM, 7x7, partner max 1 µM)	0.71	0.517	0.522	0.279	0.553	0.364	0.651	0.901	0.657	0.339	0.741	0.465	0.995	1	1	0.386	0.31	0.974	0.722	0.118
COc1nnc2ccc(N3CCC(c4ccc(OCCN5CCN(C)C(=O)[C@H]5C)cc4)CC3)nn12 [AZD5153] + C=CCn1c(=O)c2cnc(Nc3ccc(N4CCN(C)CC4)cc3)nc2n1-c1cccc(C(C)(C)O)n1 [AZD1775] (first compound max 1 µM, partner max 1 µM)	0.777	0.478	0.623	0.637	0.473	0.714	0.614	0.847	0.641	0.429	0.884	0.371	0.997	1	1	0.426	0.473	0.996	0.953	0.24
C[C@@H](c1ccc2nccn2c1)n1nnc2ncc(-c3cnn(C)c3)nc21 [Savolitinib] + Cc1c2c(nn1C)CSCc1cc(n(C)n1)CSc1cc(c3ccccc3c1)OCCCc1c(C(=O)O)n(C)c3c-2c(Cl)ccc13 [AZD5991] (first compound max 1 µM, 7x7, partner max 1 µM)	0.151	0.32	0.223	0.859	0.207	0.371	0.678	0.933	0.24	0.164	0.734	0.302	0.518	1	0.88	0.128	0.211	0.113	0.986	0.127
